{"source": "patent US20180228775A1", "about": "“METHODS OF TREATING CANCER” (Dana-Farber Cancer Institute, Inc., priority 2014, published 2018)", "key": {"[1]": {"test_system": "human PBMC", "assay": "Culture of human PBMC with GM-CSF (K562-GM) and PPAR-γ modulators: Treg numbers", "format": "cell-based"}, "[2]": {"test_system": "GM-CSF treated human monocytes", "assay": "CCL17 and CCL22 expression by GM-CSF treated human monocytes (ELISA)", "format": "cell-based", "details": "human monocytes with GM-CSF", "protocol": "CCL17 levels were normalized to the number of monocytes per well.\nFIG. 43: Role of PPAR-g in restraining Treg recruitment and expansion is conserved in GM-CSF treated human monocytes.\nCCL17 levels were measured using ELISA (DY364, R&D Systems).\nIn addition, these cultures were treated with DMSO or Rosi."}}}
{"smiles": "O=C(Nc1ccncc1)c1cc([N+](=O)[O-])ccc1Cl", "note": "[T0070907]", "values": [{"measurement": "Treg number / GM-CSF induced Treg expansion", "setting": "[1]; human PBMC with GM-CSF (K562-GM), 10 uM Rosi or T0070907 luM every 48 hours, day 4-6", "value": "increase"}, {"measurement": "CCL22 expression", "setting": "[2]", "value": "increasing"}, {"measurement": "CCL17 expression", "setting": "[2]; 10 uM Rosi, 5 days, ELISA", "value": "increasing"}]}
{"smiles": "CN(CCOc1ccc(CC2SC(=O)NC2=O)cc1)c1ccccn1", "note": "(stereo not shown) [Rosi, rosiglitazone]", "values": [{"measurement": "Treg number", "setting": "[1]; non-GM-CSF treated cultures (K562-WT)", "value": "no effect"}]}
